Data: PubChem BioAssay (NCI)
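How tested: cells in 96-well plates exposed to compound for 48 hours at five concentrations. Abbreviation: GI50, concentration required for 50% inhibition of growth. TGI is the concentration that stops growth completely.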

Experiments:
Experiment in all cases: NCI-60 cell line screen, 48 h
HL-60(TB) leukemia = system: HL-60(TB) leukemia
RXF 393 renal = system: RXF 393 renal
A498 renal = system: A498 renal
SNB-75 CNS = system: SNB-75 CNS
MDA-MB-435 = system: MDA-MB-435
PC-3 prostate = system: PC-3 prostate
DU-145 prostate = system: DU-145 prostate
HOP-62 NSCLC = system: HOP-62 NSCLC
HS 578T breast = system: HS 578T breast
HCT-116 colon = system: HCT-116 colon

Compound: OC1(c2ccc3ccccc3c2)c2ccc3ccccc3c2C2=NCCN21 (stereo unspecified)
- TGI (HL-60(TB) leukemia): > 100 µM
- TGI (RXF 393 renal): 98.5 µM
- TGI (A498 renal): > 100 µM
- TGI (SNB-75 CNS): 46.9 µM
- TGI (MDA-MB-435): > 100 µM
- TGI (PC-3 prostate): > 100 µM
- TGI (DU-145 prostate): > 100 µM
- TGI (HOP-62 NSCLC): 47.3 µM
- TGI (HS 578T breast): 53 µM
- TGI (HCT-116 colon): > 100 µM

Compound: O=c1cc(-c2nc3ccccc3[nH]2)[nH]c2nc(-c3nc4ccccc4[nH]3)cc(-c3ccc(Cl)cc3)c12
- TGI (HL-60(TB) leukemia): 66.3 µM
- TGI (RXF 393 renal): 35.8 µM
- TGI (MDA-MB-435): 35.3 µM
- TGI (PC-3 prostate): > 100 µM
- TGI (DU-145 prostate): > 100 µM
- TGI (HOP-62 NSCLC): 54.7 µM
- TGI (HS 578T breast): > 100 µM
- TGI (HCT-116 colon): 35.2 µM

Compound: CCOC(=O)[C@H]1C[C@]23CN(C(=O)OC(C)(C)C)CC[C@H]2CCC2(SCCCS2)[C@@H]3N1C
- TGI (HL-60(TB) leukemia): 47.3 µM
- TGI (RXF 393 renal): 99.7 µM
- TGI (A498 renal): > 100 µM
- TGI (SNB-75 CNS): > 100 µM
- TGI (MDA-MB-435): > 100 µM
- TGI (PC-3 prostate): 89.9 µM
- TGI (DU-145 prostate): > 100 µM
- TGI (HOP-62 NSCLC): > 100 µM
- TGI (HS 578T breast): > 100 µM
- TGI (HCT-116 colon): > 100 µM

Compound: Cc1ccc(S(=O)(=O)NCCSS(=O)(=O)c2ccc(C)cc2)cc1
- TGI (RXF 393 renal): 99.3 µM
- TGI (A498 renal): 67.2 µM
- TGI (SNB-75 CNS): 77.2 µM
- TGI (MDA-MB-435): 52 µM
- TGI (PC-3 prostate): 94.8 µM
- TGI (DU-145 prostate): > 100 µM
- TGI (HS 578T breast): > 100 µM
- TGI (HCT-116 colon): 28.3 µM

Compound: CCOc1cc(NC(C)=O)ccc1C(=O)NN1C(=O)CSC1c1ccc(O)c(OC)c1 (stereo unspecified)
- TGI (HL-60(TB) leukemia): > 100 µM
- TGI (RXF 393 renal): > 100 µM
- TGI (A498 renal): > 100 µM
- TGI (SNB-75 CNS): > 100 µM
- TGI (MDA-MB-435): > 100 µM
- TGI (PC-3 prostate): > 100 µM
- TGI (DU-145 prostate): > 100 µM
- TGI (HOP-62 NSCLC): > 100 µM
- TGI (HS 578T breast): > 100 µM
- TGI (HCT-116 colon): > 100 µM

Compound: C=CCC1=CC2(OC)C(=O)C(OC)(OC)C1C1C(OC)(OC)C(=O)C(OC)=CC12CC=C (stereo unspecified)
- TGI (HL-60(TB) leukemia): > 100 µM
- TGI (RXF 393 renal): > 100 µM
- TGI (A498 renal): > 100 µM
- TGI (SNB-75 CNS): > 100 µM
- TGI (MDA-MB-435): > 100 µM
- TGI (PC-3 prostate): > 100 µM
- TGI (DU-145 prostate): > 100 µM
- TGI (HOP-62 NSCLC): > 100 µM
- TGI (HS 578T breast): > 100 µM
- TGI (HCT-116 colon): > 100 µM

Compound: CCOc1ccc2c(c1)NC(=O)C(C1OC(c3ccccc3)=CC1=O)S2 (stereo unspecified)
- TGI (HL-60(TB) leukemia): > 100 µM
- TGI (RXF 393 renal): 42.8 µM
- TGI (A498 renal): > 100 µM
- TGI (MDA-MB-435): 44.4 µM
- TGI (PC-3 prostate): 51.4 µM
- TGI (DU-145 prostate): > 100 µM
- TGI (HOP-62 NSCLC): > 100 µM
- TGI (HS 578T breast): 86 µM
- TGI (HCT-116 colon): 88.2 µM

Compound: FC(F)(F)C1=NC(=NNc2nnc(-c3ccccc3)c(-c3ccccc3)n2)N=C(C(F)(F)F)C1
- TGI (HL-60(TB) leukemia): 37.1 µM
- TGI (RXF 393 renal): > 100 µM
- TGI (A498 renal): > 100 µM
- TGI (SNB-75 CNS): > 100 µM
- TGI (HOP-62 NSCLC): > 86.7 µM
- TGI (HCT-116 colon): > 93.6 µM

Compound: CC(C)Cc1cccc(C(C)C)c1NC(=O)CCC(=O)N/N=C1\C(=N/NC(=O)CCC(=O)Nc2c(C(C)C)cccc2C(C)C)C(c2ccc3c(c2)OCO3)Oc2ccccc21 (stereo unspecified)
- TGI (HL-60(TB) leukemia): > 100 µM
- TGI (RXF 393 renal): > 100 µM
- TGI (A498 renal): > 100 µM
- TGI (SNB-75 CNS): > 100 µM
- TGI (HOP-62 NSCLC): > 100 µM
- TGI (HCT-116 colon): > 100 µM

Compound: CN(C)CCC(C(=O)C(C)(C)C)c1ccccn1 (stereo unspecified)
- TGI (HL-60(TB) leukemia): > 100 µM
- TGI (RXF 393 renal): > 100 µM
- TGI (A498 renal): > 100 µM
- TGI (SNB-75 CNS): > 100 µM
- TGI (MDA-MB-435): > 100 µM
- TGI (PC-3 prostate): > 100 µM
- TGI (DU-145 prostate): > 100 µM
- TGI (HOP-62 NSCLC): > 100 µM
- TGI (HS 578T breast): > 100 µM
- TGI (HCT-116 colon): > 100 µM

Compound: C=C1C(=O)OC2/C=C(\C)CC(O)/C=C(/CO)CC(OC(=O)/C(C)=C/C)C12 (stereo unspecified)
- TGI (HL-60(TB) leukemia): 34.9 µM
- TGI (RXF 393 renal): 44.5 µM
- TGI (A498 renal): 58.4 µM
- TGI (SNB-75 CNS): 417 µM
- TGI (HOP-62 NSCLC): 246 µM
- TGI (HCT-116 colon): 115 µM

Compound: C[C@H](O)C(=O)SC[C@H](NC(=O)CC[C@@H](N)C(=O)O)C(=O)NCC(=O)O
- TGI (RXF 393 renal): > 100 µM
- TGI (SNB-75 CNS): > 100 µM
- TGI (HOP-62 NSCLC): > 100 µM
- TGI (HCT-116 colon): > 100 µM

Compound: CS(=O)(=O)OCc1c(O)c2c(c(O)c1COS(C)(=O)=O)C(=O)C=CC2=O
- TGI (HL-60(TB) leukemia): > 100 µM
- TGI (A498 renal): > 100 µM
- TGI (SNB-75 CNS): > 100 µM
- TGI (HOP-62 NSCLC): > 100 µM
- TGI (HCT-116 colon): > 100 µM

Compound: CC[N+](CC)(CC)/C(=N/S(=O)(=O)c1cc(C)c(Cl)cc1S)[N-]S(=O)(=O)c1ccc(Cl)cc1
- TGI (HL-60(TB) leukemia): > 100 µM
- TGI (RXF 393 renal): > 100 µM
- TGI (A498 renal): > 100 µM
- TGI (MDA-MB-435): > 100 µM
- TGI (PC-3 prostate): > 100 µM
- TGI (DU-145 prostate): > 100 µM
- TGI (HOP-62 NSCLC): > 100 µM
- TGI (HS 578T breast): > 100 µM
- TGI (HCT-116 colon): 65.6 µM

Compound: COc1ccc(-n2cc(-c3ccc(OC)c(OC)c3)nc2SCc2ccccc2)cc1Cl
- GI50 (HL-60(TB) leukemia): 12.9 µM
- TGI (HL-60(TB) leukemia): 37.7 µM
- GI50 (RXF 393 renal): 16.9 µM
- TGI (RXF 393 renal): 82 µM
- GI50 (A498 renal): 22.3 µM
- TGI (A498 renal): > 100 µM
- GI50 (SNB-75 CNS): 27.4 µM
- TGI (SNB-75 CNS): > 100 µM
- GI50 (MDA-MB-435): 27.8 µM
- TGI (MDA-MB-435): > 100 µM
- GI50 (PC-3 prostate): 13.8 µM
- TGI (PC-3 prostate): > 100 µM
- GI50 (DU-145 prostate): 27.6 µM
- TGI (DU-145 prostate): > 100 µM
- GI50 (HOP-62 NSCLC): 28.3 µM
- TGI (HOP-62 NSCLC): > 100 µM
- GI50 (HS 578T breast): 25.3 µM
- TGI (HS 578T breast): > 100 µM
- GI50 (HCT-116 colon): 9.43 µM
- TGI (HCT-116 colon): > 100 µM

Compound: CC(O)=NC(Cc1ccc2ccccc2c1)C(O)=NC(Cc1ccc(Cl)cc1)C(O)=NC(Cc1c[nH]c2ccccc12)C(O)=NC(CO)C(O)=NC(Cc1ccc(O)cc1)C(O)=NC(CCCN=C(N)N)C(O)=NC(CC(C)C)C(O)=NC(CCCN=C(N)N)C(=O)N1CCCC1C(O)=NC(C)C(=N)O (stereo unspecified)
- TGI (HL-60(TB) leukemia): > 100 µM
- TGI (RXF 393 renal): 92.2 µM
- TGI (A498 renal): > 100 µM
- TGI (SNB-75 CNS): > 100 µM
- TGI (MDA-MB-435): > 100 µM
- TGI (PC-3 prostate): > 100 µM
- TGI (DU-145 prostate): > 100 µM
- TGI (HOP-62 NSCLC): > 100 µM
- TGI (HS 578T breast): > 100 µM

Compound: C[C@]12CC[C@H](O)CC1=CC[C@@H]1[C@@H]2CC[C@]2(C)C(=O)CC[C@@H]12
- TGI (RXF 393 renal): > 100 µM
- TGI (SNB-75 CNS): > 100 µM
- TGI (MDA-MB-435): > 100 µM
- TGI (PC-3 prostate): > 100 µM
- TGI (DU-145 prostate): > 100 µM
- TGI (HS 578T breast): 97.9 µM
- TGI (HCT-116 colon): > 100 µM

Compound: CCCc1ccc(OCC(=O)N/N=C/c2c(-c3ccccc3)[nH]c3ccccc23)cc1
- TGI (HL-60(TB) leukemia): 23.8 µM
- TGI (RXF 393 renal): 28.8 µM
- TGI (A498 renal): 31.8 µM
- TGI (SNB-75 CNS): 58.6 µM
- TGI (MDA-MB-435): 8.74 µM
- TGI (PC-3 prostate): 29.4 µM
- TGI (DU-145 prostate): > 100 µM
- TGI (HOP-62 NSCLC): 37.8 µM
- TGI (HS 578T breast): > 100 µM
- TGI (HCT-116 colon): 27.7 µM

Compound: O=C(/N=C/c1c(O)c2ccccc2oc1=O)NC1CCCCC1
- TGI (HL-60(TB) leukemia): > 100 µM
- TGI (RXF 393 renal): > 100 µM
- TGI (HOP-62 NSCLC): > 100 µM
- TGI (HCT-116 colon): > 100 µM

Compound: CO[C@]12C[C@H](CNC(=O)c3cc(Br)c(Br)[nH]3)O[C@H]1NC(=O)N2
- TGI (HL-60(TB) leukemia): > 100 µM
- TGI (A498 renal): > 100 µM
- TGI (SNB-75 CNS): > 100 µM
- TGI (MDA-MB-435): > 100 µM
- TGI (PC-3 prostate): > 100 µM
- TGI (DU-145 prostate): > 100 µM
- TGI (HOP-62 NSCLC): > 100 µM
- TGI (HS 578T breast): > 100 µM
- TGI (HCT-116 colon): > 100 µM

Compound: NC1=NS(=O)(=O)Nc2nc(-c3cccs3)[nH]c21
- TGI (HL-60(TB) leukemia): > 100 µM
- TGI (RXF 393 renal): > 100 µM
- TGI (A498 renal): > 100 µM
- TGI (SNB-75 CNS): > 100 µM
- TGI (HOP-62 NSCLC): > 100 µM
- TGI (HCT-116 colon): > 100 µM

Compound: C[n+]1c(-c2ccc(/C=N\NC(=O)c3ccc(C(=O)N/N=C/c4ccc(-c5cn6ccsc6[n+]5C)cc4)cc3)cc2)cn2ccsc21
- TGI (HL-60(TB) leukemia): 43.8 µM
- TGI (RXF 393 renal): 53.5 µM
- TGI (A498 renal): 33 µM
- TGI (SNB-75 CNS): 46.7 µM
- TGI (MDA-MB-435): 37.7 µM
- TGI (PC-3 prostate): 41.1 µM
- TGI (DU-145 prostate): 35 µM
- TGI (HOP-62 NSCLC): 35.1 µM
- TGI (HS 578T breast): 54.7 µM

Compound: COc1c2ccoc2c(S(=O)(=O)Nc2ccc(Cl)cc2)c2oc(C)cc(=O)c12
- TGI (HL-60(TB) leukemia): > 31.6 µM
- TGI (RXF 393 renal): > 89.1 µM
- TGI (A498 renal): > 100 µM
- TGI (SNB-75 CNS): 76.4 µM
- TGI (HOP-62 NSCLC): > 100 µM
- TGI (HCT-116 colon): > 89.2 µM
